# Measurements: patent US20260191835A1, “COMBINATIONS COMPRISING A MENIN-MLL INHIBITOR AND AT LEAST ONE OTHER THERAPEUTIC AGENT” (JANSSEN PHARMACEUTICA NV, priority 2022, published 2026)
# Tested on: MOLM-13 cells
# Assay: In vitro proliferation (Cell Titer Glo, 6 days) of Compound 51 in combination with gilteritinib, midostaurin, idarubicin or decitabine, MOLM-13
# Type: cell-based, human
# Set-up: key to maxR call (synergy/antagonism), combination with Gilteritinib on MOLM-13 cell proliferation / Synergy/antagonism call (maxR test), MOLM-13 Cell Proliferation: synergy is indicated by “**”; antagonism is indicated by “*”; no asterisk: absence of any asterisk indicates an additive effect
# Protocol: 3) In Vitro Proliferation—Menin-MLL Inhibitor in Combination with FLT3 Inhibitor (Gilteritinib or Midostaurin), DNA Intercalating Agent (Idarubicin) or Hypomethylating Agent (Decitabine)
# The effect of Compound 51 in combination with gilteritinib, midostaurin, idarubicin or decitabine was determined in proliferation assays.
# AML cell lines MOLM-13, OCI-AML3 and MV4-11 were purchased from DSMZ. MOLM-13 were grown in RPMI medium supplemented with 10% Fetal Bovine Serum (FBS) and 1% penicillin/streptomycin. MV4-11 cells were grown in IMDM medium supplemented with 10% FBS and 1% penicillin/streptomycin. OCI-AML3 cells were cultured in 80-90% alpha-MEM (with or without ribo- and deoxyribonucleosides)+10-20% FBS. All cell lines were cultured at 37° C. in 5% CO2 atmosphere.
# AML cell lines (10-20×10^3 cells/well) were seeded in 96-well plates and grown for 6 days in serum (10%)-containing medium in the presence or absence of inhibitors at the indicated concentrations. Proliferation was analyzed by means of a Cell Titer Glo assay using the […] (Promega, Madison, WI, USA), according to the manufacturer's instructions. Data are mean with standard deviation from two to four independent experiments in technical triplicates.
# R-based Biochemically Intuitive Generalized Loewe (BIGL) model implemented with a highest single agent (HSA) null model. Specifically, the BIGL methodology was applied to calculate drug-drug interactions (Van der Borght, K., Tourny, A., Bagdziunas, R. et al. BIGL: Biochemically Intuitive Generalized Loewe null model for prediction of the expected combined effect compatible with partial agonism and antagonism. Sci Rep 7, 17935 (2017); Thas, O., Tourny, A., Verbist, B., Hawinkel, S., Nazarov, M., Mutambanengwe, K., & Bijnens, L. Statistical detection of synergy: New methods and a comparative study. Pharmaceutical Statistics (2021)).
# Synergy matrix results of the BIGL analysis of the cell line data with HSA as mean model calculated on the basis of the cellular metabolic activity using Cell Titer-Glo assay. Bootstrap confidence intervals are indicated. Effect sizes and their confidence intervals are shown. […] No significant average effect if zero is included in the interval.
# [1] = Compound 51 0.05 μm, Gilteritinib 0.01 μM
# [2] = Compound 51 0.1 μm + Decitabine 0.015 μM
# [3] = Compound 51 0.1 μm + Decitabine 0.15 μM
# [4] = Compound 51 0.1 μm + Idarubicin 0.001 μM
# [5] = Compound 51 0.1 μm + Midostaurin 0.006 μM
# [6] = Compound 51 0.1 μm + Midostaurin 0.025 μM
# [7] = Compound 51 0.1 μm, Gilteritinib 0.01 μM
# [8] = Compound 51 1 μm + Decitabine 0.15 μM
# [9] = Compound 51 1 μm + Idarubicin 0.001 μM
# [10] = Compound 51 1 μm + Midostaurin 0.006 μM
# [11] = Compound 51 1 μm + Midostaurin 0.025 μM
# [12] = Compound 51 10 μm + Decitabine 0.015 μM
# [13] = Compound 51 10 μm + Decitabine 0.15 μM
# [14] = Compound 51 10 μm, Gilteritinib 0.01 μM
# [15] = Compound 51 10 μm, Gilteritinib 0.05 μM
smiles,measurement,setting,value
CC(=O)N1CCC(CN2CC[C@@H](Cc3cn(-c4ccc(F)cc4C(=O)N(C)C(C)C)c4cncc(C)c34)C2)CC1 [Compound 51],"Effect size (BIGL, HSA null model), combination with Gilteritinib on MOLM-13 cell proliferation","Compound 51 0.05 μm, Gilteritinib 0.005 μM",−0.14
same,"Effect size (BIGL, HSA null model), combination with Gilteritinib on MOLM-13 cell proliferation",[1],−0.32
same,"maxR call (synergy/antagonism), combination with Gilteritinib on MOLM-13 cell proliferation",[1],**
same,"Effect size (BIGL, HSA null model), combination with Gilteritinib on MOLM-13 cell proliferation","Compound 51 0.05 μm, Gilteritinib 0.05 μM",−0.22
same,"Effect size (BIGL, HSA null model), combination with Gilteritinib on MOLM-13 cell proliferation","Compound 51 0.05 μm, Gilteritinib 0.1 μM",−0.14
same,"Effect size (BIGL, HSA null model), combination with Gilteritinib on MOLM-13 cell proliferation","Compound 51 0.05 μm, Gilteritinib 1 μM",−0.01
same,"Effect size (BIGL, HSA null model), MOLM-13 Cell Proliferation",Compound 51 0.1 μm + Decitabine 0.0015 μM,−0.01
same,"Effect size (BIGL, HSA null model), MOLM-13 Cell Proliferation",[2],−0.33
same,"Synergy/antagonism call (maxR test), MOLM-13 Cell Proliferation",[2],**
same,"Effect size (BIGL, HSA null model), MOLM-13 Cell Proliferation",[3],−0.35
same,"Synergy/antagonism call (maxR test), MOLM-13 Cell Proliferation",[3],**
same,"Effect size (BIGL, HSA null model), MOLM-13 Cell Proliferation",Compound 51 0.1 μm + Decitabine 1.5 μM,−0.05
same,"Effect size (BIGL, HSA null model), MOLM-13 Cell Proliferation",Compound 51 0.1 μm + Decitabine 3 μM,−0.03
same,"Effect size (BIGL, HSA null model), MOLM-13 Cell Proliferation",Compound 51 0.1 μm + Idarubicin 0.0005 μM,−0.13
same,"Effect size (BIGL, HSA null model), MOLM-13 Cell Proliferation",[4],−0.42
same,"Synergy/antagonism call (maxR test), MOLM-13 Cell Proliferation",[4],**
same,"Effect size (BIGL, HSA null model), MOLM-13 Cell Proliferation",Compound 51 0.1 μm + Idarubicin 0.0025 μM,−0.23
same,"Effect size (BIGL, HSA null model), MOLM-13 Cell Proliferation",Compound 51 0.1 μm + Idarubicin 0.005 μM,−0.11
same,"Effect size (BIGL, HSA null model), MOLM-13 Cell Proliferation",Compound 51 0.1 μm + Idarubicin 0.05 μM,0.02
same,"Effect size (BIGL, HSA null model), MOLM-13 Cell Proliferation",Compound 51 0.1 μm + Idarubicin 0.5 μM,0.02
same,"Effect size (BIGL, HSA null model), MOLM-13 Cell Proliferation",Compound 51 0.1 μm + Midostaurin 0.0012 μM,−0.08
same,"Effect size (BIGL, HSA null model), MOLM-13 Cell Proliferation",[5],−0.23
same,"Synergy/antagonism call (maxR test), MOLM-13 Cell Proliferation",[5],**
same,"Effect size (BIGL, HSA null model), MOLM-13 Cell Proliferation",[6],−0.17
same,"Synergy/antagonism call (maxR test), MOLM-13 Cell Proliferation",[6],**
same,"Effect size (BIGL, HSA null model), MOLM-13 Cell Proliferation",Compound 51 0.1 μm + Midostaurin 0.05 μM,−0.08
same,"Effect size (BIGL, HSA null model), MOLM-13 Cell Proliferation",Compound 51 0.1 μm + Midostaurin 0.1 μM,−0.04
same,"Effect size (BIGL, HSA null model), MOLM-13 Cell Proliferation",Compound 51 0.1 μm + Midostaurin 0.5 μM,−0.02
same,"Effect size (BIGL, HSA null model), combination with Gilteritinib on MOLM-13 cell proliferation","Compound 51 0.1 μm, Gilteritinib 0.0005 μM",−0.03
same,"Effect size (BIGL, HSA null model), combination with Gilteritinib on MOLM-13 cell proliferation","Compound 51 0.1 μm, Gilteritinib 0.005 μM",−0.13
same,"Effect size (BIGL, HSA null model), combination with Gilteritinib on MOLM-13 cell proliferation",[7],−0.3
same,"maxR call (synergy/antagonism), combination with Gilteritinib on MOLM-13 cell proliferation",[7],**
same,"Effect size (BIGL, HSA null model), combination with Gilteritinib on MOLM-13 cell proliferation","Compound 51 0.1 μm, Gilteritinib 0.05 μM",−0.24
same,"Effect size (BIGL, HSA null model), combination with Gilteritinib on MOLM-13 cell proliferation","Compound 51 0.1 μm, Gilteritinib 0.1 μM",−0.14
same,"Effect size (BIGL, HSA null model), combination with Gilteritinib on MOLM-13 cell proliferation","Compound 51 0.1 μm, Gilteritinib 1 μM",−0.01
same,"Effect size (BIGL, HSA null model), MOLM-13 Cell Proliferation",Compound 51 1 μm + Decitabine 0.0015 μM,0.03
same,"Effect size (BIGL, HSA null model), MOLM-13 Cell Proliferation",Compound 51 1 μm + Decitabine 0.015 μM,−0.1
same,"Effect size (BIGL, HSA null model), MOLM-13 Cell Proliferation",[8],−0.38
same,"Synergy/antagonism call (maxR test), MOLM-13 Cell Proliferation",[8],**
same,"Effect size (BIGL, HSA null model), MOLM-13 Cell Proliferation",Compound 51 1 μm + Idarubicin 0.0005 μM,−0.08
same,"Effect size (BIGL, HSA null model), MOLM-13 Cell Proliferation",[9],−0.38
same,"Synergy/antagonism call (maxR test), MOLM-13 Cell Proliferation",[9],**
same,"Effect size (BIGL, HSA null model), MOLM-13 Cell Proliferation",Compound 51 1 μm + Idarubicin 0.0025 μM,−0.24
same,"Effect size (BIGL, HSA null model), MOLM-13 Cell Proliferation",Compound 51 1 μm + Idarubicin 0.005 μM,−0.11
same,"Effect size (BIGL, HSA null model), MOLM-13 Cell Proliferation",Compound 51 1 μm + Idarubicin 0.05 μM,0.02
same,"Effect size (BIGL, HSA null model), MOLM-13 Cell Proliferation",Compound 51 1 μm + Idarubicin 0.5 μM,0.02
same,"Effect size (BIGL, HSA null model), MOLM-13 Cell Proliferation",Compound 51 1 μm + Midostaurin 0.0012 μM,−0.03
same,"Effect size (BIGL, HSA null model), MOLM-13 Cell Proliferation",[10],−0.18
same,"Synergy/antagonism call (maxR test), MOLM-13 Cell Proliferation",[10],**
same,"Effect size (BIGL, HSA null model), MOLM-13 Cell Proliferation",[11],−0.19
same,"Synergy/antagonism call (maxR test), MOLM-13 Cell Proliferation",[11],**
same,"Effect size (BIGL, HSA null model), MOLM-13 Cell Proliferation",Compound 51 1 μm + Midostaurin 0.05 μM,−0.08
same,"Effect size (BIGL, HSA null model), MOLM-13 Cell Proliferation",Compound 51 1 μm + Midostaurin 0.1 μM,−0.04
same,"Effect size (BIGL, HSA null model), MOLM-13 Cell Proliferation",Compound 51 1 μm + Midostaurin 0.5 μM,−0.02
same,"Effect size (BIGL, HSA null model), combination with Gilteritinib on MOLM-13 cell proliferation","Compound 51 1 μm, Gilteritinib 0.0005 μM",0.03
same,"Effect size (BIGL, HSA null model), combination with Gilteritinib on MOLM-13 cell proliferation","Compound 51 1 μm, Gilteritinib 0.005 μM",−0.1
same,"Effect size (BIGL, HSA null model), combination with Gilteritinib on MOLM-13 cell proliferation","Compound 51 1 μm, Gilteritinib 0.01 μM",−0.22
same,"Effect size (BIGL, HSA null model), combination with Gilteritinib on MOLM-13 cell proliferation","Compound 51 1 μm, Gilteritinib 0.05 μM",−0.25
same,"Effect size (BIGL, HSA null model), combination with Gilteritinib on MOLM-13 cell proliferation","Compound 51 1 μm, Gilteritinib 0.1 μM",−0.14
same,"Effect size (BIGL, HSA null model), combination with Gilteritinib on MOLM-13 cell proliferation","Compound 51 1 μm, Gilteritinib 1 μM",−0.01
same,"Effect size (BIGL, HSA null model), MOLM-13 Cell Proliferation",Compound 51 10 μm + Decitabine 0.0015 μM,−0.06
same,"Effect size (BIGL, HSA null model), MOLM-13 Cell Proliferation",[12],−0.16
same,"Synergy/antagonism call (maxR test), MOLM-13 Cell Proliferation",[12],**
same,"Effect size (BIGL, HSA null model), MOLM-13 Cell Proliferation",[13],−0.38
same,"Synergy/antagonism call (maxR test), MOLM-13 Cell Proliferation",[13],**
same,"Effect size (BIGL, HSA null model), MOLM-13 Cell Proliferation",Compound 51 10 μm + Decitabine 1.5 μM,−0.05
same,"Effect size (BIGL, HSA null model), MOLM-13 Cell Proliferation",Compound 51 10 μm + Decitabine 3 μM,−0.03
same,"Effect size (BIGL, HSA null model), combination with Gilteritinib on MOLM-13 cell proliferation","Compound 51 10 μm, Gilteritinib 0.0005 μM",−0.05
same,"Effect size (BIGL, HSA null model), combination with Gilteritinib on MOLM-13 cell proliferation","Compound 51 10 μm, Gilteritinib 0.005 μM",−0.17
same,"Effect size (BIGL, HSA null model), combination with Gilteritinib on MOLM-13 cell proliferation",[14],−0.26
same,"maxR call (synergy/antagonism), combination with Gilteritinib on MOLM-13 cell proliferation",[14],**
same,"Effect size (BIGL, HSA null model), combination with Gilteritinib on MOLM-13 cell proliferation",[15],−0.27
same,"maxR call (synergy/antagonism), combination with Gilteritinib on MOLM-13 cell proliferation",[15],**
same,"Effect size (BIGL, HSA null model), combination with Gilteritinib on MOLM-13 cell proliferation","Compound 51 10 μm, Gilteritinib 0.1 μM",−0.14
same,"Effect size (BIGL, HSA null model), combination with Gilteritinib on MOLM-13 cell proliferation","Compound 51 10 μm, Gilteritinib 1 μM",−0.01
same,combination effect on proliferation at low doses of Midostaurin,"in combination with Midostaurin 6 to 25 nM, MOLM-13",synergized
same,combination effect on proliferation (cytotoxicity),"in combination with decitabine, MOLM-13, 6-day CellTiter-Glo matrix",synergistically cytotoxic
same,combination effect on proliferation at low doses of gilteritinib,"in combination with gilteritinib 500 pM, MOLM-13",synergistic effect
same,combination effect on proliferation (cytotoxicity),"in combination with gilteritinib, MOLM-13, 6-day CellTiter-Glo matrix",not antagonistically cytotoxic
same,combination effect on proliferation (cytotoxicity),"in combination with idarubicin, MOLM-13, 6-day Cell Titer-Glo matrix",synergistically cytotoxic
same,combination effect on proliferation (cytotoxicity),"in combination with midostaurin, MOLM-13, 6-day CellTiter-Glo matrix",not antagonistically cytotoxic
